From BigSolDB 2.1

CC(C)(N)C(=O)O
solubility (mole fraction) (in 2-butanone, 283.15 K): 0.000215
solubility (mole fraction) (in 2-butanone, 288.15 K): 0.000258
solubility (mole fraction) (in 2-butanone, 293.15 K): 0.000319
solubility (mole fraction) (in 2-butanone, 298.15 K): 0.000415
solubility (mole fraction) (in 2-butanone, 303.15 K): 0.000507
solubility (mole fraction) (in 2-butanone, 308.15 K): 0.000599
solubility (mole fraction) (in 2-butanone, 313.15 K): 0.00068
solubility (mole fraction) (in 2-butanone, 318.15 K): 0.000803
solubility (mole fraction) (in 2-butanone, 323.15 K): 0.000946
solubility (mole fraction) (in DMF, 283.15 K): 5.8e-05
solubility (mole fraction) (in DMF, 288.15 K): 0.00019
solubility (mole fraction) (in DMF, 293.15 K): 0.000365
solubility (mole fraction) (in DMF, 298.15 K): 0.00067
solubility (mole fraction) (in DMF, 303.15 K): 0.00102
solubility (mole fraction) (in DMF, 308.15 K): 0.00163
solubility (mole fraction) (in DMF, 313.15 K): 0.00245
solubility (mole fraction) (in DMF, 318.15 K): 0.00356
solubility (mole fraction) (in DMF, 323.15 K): 0.00462
solubility (mole fraction) (in acetone, 283.15 K): 6e-05
solubility (mole fraction) (in acetone, 288.15 K): 9.7e-05
solubility (mole fraction) (in acetone, 293.15 K): 0.00016
solubility (mole fraction) (in acetone, 298.15 K): 0.000211
solubility (mole fraction) (in acetone, 303.15 K): 0.000253
solubility (mole fraction) (in acetone, 308.15 K): 0.000319
solubility (mole fraction) (in acetone, 313.15 K): 0.000386
solubility (mole fraction) (in acetone, 318.15 K): 0.000442
solubility (mole fraction) (in acetone, 323.15 K): 0.000501
solubility (mole fraction) (in acetonitrile, 283.15 K): 0.000123
solubility (mole fraction) (in acetonitrile, 288.15 K): 0.00014
solubility (mole fraction) (in acetonitrile, 293.15 K): 0.000163
solubility (mole fraction) (in acetonitrile, 298.15 K): 0.000189
solubility (mole fraction) (in acetonitrile, 303.15 K): 0.000218
solubility (mole fraction) (in acetonitrile, 308.15 K): 0.00024
solubility (mole fraction) (in acetonitrile, 313.15 K): 0.000277
solubility (mole fraction) (in acetonitrile, 318.15 K): 0.000317
solubility (mole fraction) (in acetonitrile, 323.15 K): 0.000366
solubility (mole fraction) (in ethanol, 283.15 K): 0.000102
solubility (mole fraction) (in ethanol, 288.15 K): 0.000183
solubility (mole fraction) (in ethanol, 293.15 K): 0.000277
solubility (mole fraction) (in ethanol, 298.15 K): 0.000376
solubility (mole fraction) (in ethanol, 303.15 K): 0.000479
solubility (mole fraction) (in ethanol, 308.15 K): 0.000579
solubility (mole fraction) (in ethanol, 313.15 K): 0.000669
solubility (mole fraction) (in ethanol, 318.15 K): 0.000763
solubility (mole fraction) (in ethanol, 323.15 K): 0.000879
solubility (mole fraction) (in ethyl acetate, 283.15 K): 0.000164
solubility (mole fraction) (in ethyl acetate, 288.15 K): 0.000246
solubility (mole fraction) (in ethyl acetate, 293.15 K): 0.000353
solubility (mole fraction) (in ethyl acetate, 298.15 K): 0.000507
solubility (mole fraction) (in ethyl acetate, 303.15 K): 0.000635
solubility (mole fraction) (in ethyl acetate, 308.15 K): 0.000808
solubility (mole fraction) (in ethyl acetate, 313.15 K): 0.000949
solubility (mole fraction) (in ethyl acetate, 318.15 K): 0.00111
solubility (mole fraction) (in ethyl acetate, 323.15 K): 0.00137
solubility (mole fraction) (in isopropanol, 283.15 K): 0.000157
solubility (mole fraction) (in isopropanol, 288.15 K): 0.000176
solubility (mole fraction) (in isopropanol, 293.15 K): 0.000198
solubility (mole fraction) (in isopropanol, 298.15 K): 0.000227
solubility (mole fraction) (in isopropanol, 303.15 K): 0.000275
solubility (mole fraction) (in isopropanol, 308.15 K): 0.000336
solubility (mole fraction) (in isopropanol, 313.15 K): 0.000396
solubility (mole fraction) (in isopropanol, 318.15 K): 0.000466
solubility (mole fraction) (in isopropanol, 323.15 K): 0.000576
solubility (mole fraction) (in methanol, 283.15 K): 0.000625
solubility (mole fraction) (in methanol, 288.15 K): 0.000658
solubility (mole fraction) (in methanol, 293.15 K): 0.000715
solubility (mole fraction) (in methanol, 298.15 K): 0.000792
solubility (mole fraction) (in methanol, 303.15 K): 0.000878
solubility (mole fraction) (in methanol, 308.15 K): 0.000947
solubility (mole fraction) (in methanol, 313.15 K): 0.00106
solubility (mole fraction) (in methanol, 318.15 K): 0.00117
solubility (mole fraction) (in methanol, 323.15 K): 0.0013
solubility (mole fraction) (in methyl acetate, 283.15 K): 6.8e-05
solubility (mole fraction) (in methyl acetate, 288.15 K): 0.000102
solubility (mole fraction) (in methyl acetate, 293.15 K): 0.00013
solubility (mole fraction) (in methyl acetate, 298.15 K): 0.000168
solubility (mole fraction) (in methyl acetate, 303.15 K): 0.00021
solubility (mole fraction) (in methyl acetate, 308.15 K): 0.000248
solubility (mole fraction) (in methyl acetate, 313.15 K): 0.000306
solubility (mole fraction) (in methyl acetate, 318.15 K): 0.000364
solubility (mole fraction) (in methyl acetate, 323.15 K): 0.000436
solubility (mole fraction) (in n-butanol, 283.15 K): 0.000158
solubility (mole fraction) (in n-butanol, 288.15 K): 0.000219
solubility (mole fraction) (in n-butanol, 293.15 K): 0.00027
solubility (mole fraction) (in n-butanol, 298.15 K): 0.000334
solubility (mole fraction) (in n-butanol, 303.15 K): 0.00043
solubility (mole fraction) (in n-butanol, 308.15 K): 0.000518
solubility (mole fraction) (in n-butanol, 313.15 K): 0.00065
solubility (mole fraction) (in n-butanol, 318.15 K): 0.000783
solubility (mole fraction) (in n-butanol, 323.15 K): 0.000963
solubility (mole fraction) (in n-pentanol, 283.15 K): 0.0002
solubility (mole fraction) (in n-pentanol, 288.15 K): 0.000248
solubility (mole fraction) (in n-pentanol, 293.15 K): 0.000302
solubility (mole fraction) (in n-pentanol, 298.15 K): 0.000369
solubility (mole fraction) (in n-pentanol, 303.15 K): 0.000448
solubility (mole fraction) (in n-pentanol, 308.15 K): 0.000523
solubility (mole fraction) (in n-pentanol, 313.15 K): 0.000616
solubility (mole fraction) (in n-pentanol, 318.15 K): 0.000721
solubility (mole fraction) (in n-pentanol, 323.15 K): 0.000843
solubility (mole fraction) (in n-propanol, 283.15 K): 0.00015
solubility (mole fraction) (in n-propanol, 288.15 K): 0.000207
solubility (mole fraction) (in n-propanol, 293.15 K): 0.000302
solubility (mole fraction) (in n-propanol, 298.15 K): 0.000388
solubility (mole fraction) (in n-propanol, 303.15 K): 0.000466
solubility (mole fraction) (in n-propanol, 308.15 K): 0.000553
solubility (mole fraction) (in n-propanol, 313.15 K): 0.000659
solubility (mole fraction) (in n-propanol, 318.15 K): 0.000774
solubility (mole fraction) (in n-propanol, 323.15 K): 0.000945
solubility (mole fraction) (in water, 283.15 K): 0.0256
solubility (mole fraction) (in water, 288.15 K): 0.0259
solubility (mole fraction) (in water, 293.15 K): 0.0261
solubility (mole fraction) (in water, 298.15 K): 0.0266
solubility (mole fraction) (in water, 303.15 K): 0.0269
solubility (mole fraction) (in water, 308.15 K): 0.0273
solubility (mole fraction) (in water, 313.15 K): 0.0276
solubility (mole fraction) (in water, 318.15 K): 0.0282
solubility (mole fraction) (in water, 323.15 K): 0.0291
